Article PMC3841297 (Chemical biology & drug design, 2013)

Target: SrtA (SrtAΔN59, residue 60–206) (Staphylococcus aureus, UniProt Q2FV99)
Assay: SrtA enzymatic inhibition, FRET assay
Type: biochemical

O=C(O)COc1ccccc1C1Nc2cccc3cccc(c23)N1 [Compound 1, (2-(2,3-dihydro-1H-perimidin-2-yl)-phenoxy)-acetic acid]
IC50: 47.2 ± 5.9 µM
